From patent US7405038B1, “Stable cell lines resistant to apoptosis and nutrient stress and methods of making same” (Boyce Thompson Institute for Plant Research, Inc., priority 2000, dated 2008)
Numbered stars: 1 amine (or outer) side, 2 acyl side, 3 side chain; on linkers, the order of the positions; unused ones are H or OH. Bridge positions count the residues as written; N and C are the ends. Square brackets hold non-standard residues; d marks the D form. Peptide text beside a SMILES is read from it. I, II: the chains in the order shown. Actinocin(9to1) = Cc1c2oc3c(C)ccc(C(=O)[*:1])c3nc-2c(C(=O)[*:2])c(N)c1=O; NMeV = CN[C@H](C(=O)O)C(C)C; Sar = CNCC(=O)O

How the values were obtained:
Assay type in all cases: cell-based, Spodoptera frugiperda
[1] = tested on: Sf9P35AcV5-1 cells; assay: Resistance to induction of apoptosis by actinomycin D: cell survival
Method: (§1) The cells were examined for resistance to induction of apoptosis by actinomycin D, as well as survival under conditions of nutrient deprivation. Sf9 cells or stably transfected lines Sf9^P35AcV5−1 and Sf9^P35AcV5−3 were incubated in medium containing 0.1 μg/ml actinomycin D for 1 hour, then placed in TNMFH medium.
(§2) Increasing doses of actinomycin D were tested to further examine the degree of resistance to this inducer of apoptosis. Sf9 or stably transfected cells expressing P35 were incubated in a range of concentrations of actinomycin D (0.01 to 0.5 μg/ml) for one hour, then placed in TNMFH and scored for cell survival after 1-4 days (Table 2).

[2] = tested on: Sf9P35AcV5-3 cells; assay: as above
Method: as §1, §2

[3] = tested on: Sf9 cells; assay: DNA laddering on agarose gel after actinomycin D exposure; settings: 0.1 μg/ml actinomycin D for one hour, 24 hours in fresh TNMFH
Method: (§3) To further examine resistance to apoptosis by P35 expressing cells, Sf9, Sf9^P35AcV5−1 and Sf9^P35AcV5−3 cells were plated at 2×10^6 cells/well in 6-well plates, then exposed to actinomycin D (0.1 μg/ml) for one hour, and incubated in fresh TNMFH medium at 27° C. for 24 hours. Cells were harvested and washed twice with PBS. Lysates were prepared by incubating cells in 200 μl lysis buffer (10 mM Tris pH 7.5, 25 mM EDTA, 0.2% Triton X-100) for one hour at room temperature. The lysate was extracted once with phenol, once with phenol:chloroform (1:1), twice with chloroform, and then precipitated in two volumes of ethanol. Cellular DNA was resuspended in 30 μl water containing RNAse A (50 μg/ml). 10 μl of DNA from each cell treatment was electrophoresed on a 1.2% agarose gel in TBE buffer (not shown).

[4] = tested on: Sf9P35AcV5-1 cells; assay: as above; settings: 0.1 μg/ml actinomycin D for one hour, 24 hours in fresh TNMFH
Method: as §3

[5] = tested on: Sf9P35AcV5-3 cells; assay: as above; settings: 0.1 μg/ml actinomycin D for one hour, 24 hours in fresh TNMFH
Method: as §3

[6] = tested on: surviving transfected Sf9 cells; assay: Actinomycin D selection of G418-selected transfected cells; settings: 0.1 μg/ml actinomycin D for 1 hour, then fresh TNMFH; after three days
Method: In order to select cells expressing higher levels of functional P35, the surviving transfected cells were placed in medium containing 0.1 μg/ml actinomycin D for 1 hour. Another example of an inducer of apoptosis that could be used to select cells resistant to apoptosis is UV irradiation. In mammalian cells, inducers of apoptosis such as tumor necrosis factor (TNF) could also be used. The selection using an inducer of apoptosis could alternatively be performed without cotransfection with a selectable marker such as an antibiotic resistance gene.
At the end of the one hour incubation in actinomycin D, the medium was replaced with fresh TNMFH medium (containing no actinomycin D) and cells were allowed to grow for three days. After three days, 85-90% of the cells treated with actinomycin D-containing medium died. Medium was replaced after 3 days and surviving single cells formed small colonies which were subsequently propagated and used to clone individual cell lines by limiting dilution. For limiting dilution cloning, cells were diluted into 96 well plates such that each well received only one cell on average. Each well was subsequently monitored to ensure that only a single colony was present. Monoclonal cell lines were selected and propagated. Cell lines expressing the native P35 protein were named Sf9^P35, and lines expressing the epitope tagged P35 protein were named Sf9^P35AcV5. […]

[7] = 0.1 μg/ml actinomycin D for one hour, Day 2
[8] = 0.1 μg/ml actinomycin D for one hour, Day 3
[9] = 0.1 μg/ml actinomycin D for one hour, Day 4
[10] = 0.25 μg/ml actinomycin D for one hour, Day 1
[11] = 0.25 μg/ml actinomycin D for one hour, Day 2
[12] = 0.25 μg/ml actinomycin D for one hour, Day 3
[13] = 0.25 μg/ml actinomycin D for one hour, Day 4
[14] = 0.5 μg/ml actinomycin D for one hour, Day 1
[15] = 0.5 μg/ml actinomycin D for one hour, Day 2
[16] = 0.5 μg/ml actinomycin D for one hour, Day 3
[17] = 0.5 μg/ml actinomycin D for one hour, Day 4

With `Cc1c2oc3c(C)ccc(C(=O)N[C@@H]4C(=O)N[C@H](C(C)C)C(=O)N5CCC[C@H]5C(=O)N(C)CC(=O)N(C)[C@@H](C(C)C)C(=O)O[C@@H]4C)c3nc-2c(C(=O)N[C@@H]2C(=O)N[C@H](C(C)C)C(=O)N3CCC[C@H]3C(=O)N(C)CC(=O)N(C)[C@@H](C(C)C)C(=O)O[C@@H]2C)c(N)c1=O` [Actinomycin D, actinomycin D] (I: T[dV]P[Sar][NMeV] / II: T[dV]P[Sar][NMeV]; ester I:1-I:C, II:1-II:C; linker I:N-II:N via Actinocin(9to1)) the “Sf9P35AcV5-1 Cell Survival (Percentage)” value [1, 7] was 100 Percentage, the “Sf9P35AcV5-1 Cell Survival (Percentage)” value [1, 8] was 100 Percentage and the “Sf9P35AcV5-1 Cell Survival (Percentage)” value [1, 9] was 100 Percentage. The “survival of stably transfected line” value ([1]; 0.25 μg/ml actinomycin D) was 100%, the “Sf9P35AcV5-1 Cell Survival (Percentage)” value [1, 10] was 100 Percentage and the “Sf9P35AcV5-1 Cell Survival (Percentage)” value [1, 11] was 100 Percentage. For the same compound, the “Sf9P35AcV5-1 Cell Survival (Percentage)” value [1, 12] was 100 Percentage, the “Sf9P35AcV5-1 Cell Survival (Percentage)” value [1, 13] was 100 Percentage and the “survival of stably transfected line” value ([1]; 0.5 μg/ml actinomycin D) was ≤ 10%. For the same compound, the “Sf9P35AcV5-1 Cell Survival (Percentage)” value [1, 14] was 8.5 Percentage, the “Sf9P35AcV5-1 Cell Survival (Percentage)” value [1, 15] was 5.7 Percentage and the “Sf9P35AcV5-1 Cell Survival (Percentage)” value [1, 16] was 1.5 Percentage. The “Sf9P35AcV5-1 Cell Survival (Percentage)” value [1, 17] was 0 Percentage, the “resistance to actinomycin D as an inducer of apoptosis” value ([1]; relative to Sf9 cells) was ≥ 2 fold and the “Sf9P35AcV5-3 Cell Survival (Percentage)” value ([2]; 0.01 μg/ml actinomycin D for one hour, Day 1) was 100 Percentage. The “Sf9P35AcV5-3 Cell Survival (Percentage)” value ([2]; 0.01 μg/ml actinomycin D for one hour, Day 2) was 100 Percentage, the “Sf9P35AcV5-3 Cell Survival (Percentage)” value ([2]; 0.01 μg/ml actinomycin D for one hour, Day 3) was 100 Percentage and the “Sf9P35AcV5-3 Cell Survival (Percentage)” value ([2]; 0.01 μg/ml actinomycin D for one hour, Day 4) was 100 Percentage. For the same compound, the “Sf9P35AcV5-3 Cell Survival (Percentage)” value ([2]; 0.025 μg/ml actinomycin D for one hour, Day 1) was 100 Percentage, the “Sf9P35AcV5-3 Cell Survival (Percentage)” value ([2]; 0.025 μg/ml actinomycin D for one hour, Day 2) was 100 Percentage and the “Sf9P35AcV5-3 Cell Survival (Percentage)” value ([2]; 0.025 μg/ml actinomycin D for one hour, Day 3) was 100 Percentage. The “Sf9P35AcV5-3 Cell Survival (Percentage)” value ([2]; 0.025 μg/ml actinomycin D for one hour, Day 4) was 100 Percentage, the “Sf9P35AcV5-3 Cell Survival (Percentage)” value ([2]; 0.05 μg/ml actinomycin D for one hour, Day 1) was 100 Percentage and the “Sf9P35AcV5-3 Cell Survival (Percentage)” value ([2]; 0.05 μg/ml actinomycin D for one hour, Day 2) was 100 Percentage. The “Sf9P35AcV5-3 Cell Survival (Percentage)” value ([2]; 0.05 μg/ml actinomycin D for one hour, Day 3) was 100 Percentage, the “Sf9P35AcV5-3 Cell Survival (Percentage)” value ([2]; 0.05 μg/ml actinomycin D for one hour, Day 4) was 100 Percentage and the “Sf9P35AcV5-3 Cell Survival (Percentage)” value ([2]; 0.075 μg/ml actinomycin D for one hour, Day 1) was 100 Percentage. For the same compound, the “Sf9P35AcV5-3 Cell Survival (Percentage)” value ([2]; 0.075 μg/ml actinomycin D for one hour, Day 2) was 100 Percentage, the “Sf9P35AcV5-3 Cell Survival (Percentage)” value ([2]; 0.075 μg/ml actinomycin D for one hour, Day 3) was 100 Percentage and the “Sf9P35AcV5-3 Cell Survival (Percentage)” value ([2]; 0.075 μg/ml actinomycin D for one hour, Day 4) was 100 Percentage. The “survival of Sf9P35AcV5-3 cells” value ([2]; 0.1 μg/ml actinomycin D for 1 hour, then TNMFH medium, after three days) was “survived”, the “Sf9P35AcV5-3 Cell Survival (Percentage)” value ([2]; 0.1 μg/ml actinomycin D for one hour, Day 1) was 100 Percentage and the “Sf9P35AcV5-3 Cell Survival (Percentage)” value [2, 7] was 100 Percentage. For the same compound, the “Sf9P35AcV5-3 Cell Survival (Percentage)” value [2, 8] was 100 Percentage, the “Sf9P35AcV5-3 Cell Survival (Percentage)” value [2, 9] was 100 Percentage and the “survival of stably transfected line” value ([2]; 0.25 μg/ml actinomycin D) was 100%. For the same compound, the “Sf9P35AcV5-3 Cell Survival (Percentage)” value [2, 10] was 100 Percentage, the “Sf9P35AcV5-3 Cell Survival (Percentage)” value [2, 11] was 100 Percentage and the “Sf9P35AcV5-3 Cell Survival (Percentage)” value [2, 12] was 100 Percentage. The “Sf9P35AcV5-3 Cell Survival (Percentage)” value [2, 13] was 100 Percentage, the “survival of stably transfected line” value ([2]; 0.5 μg/ml actinomycin D) was ≤ 10% and the “Sf9P35AcV5-3 Cell Survival (Percentage)” value [2, 14] was 9.2 Percentage. For the same compound, the “Sf9P35AcV5-3 Cell Survival (Percentage)” value [2, 15] was 8.5 Percentage, the “Sf9P35AcV5-3 Cell Survival (Percentage)” value [2, 16] was 1.5 Percentage and the “Sf9P35AcV5-3 Cell Survival (Percentage)” value [2, 17] was 0 Percentage. For the same compound, the “resistance to actinomycin D as an inducer of apoptosis” value ([2]; relative to Sf9 cells) was ≥ 2 fold, the “DNA laddering / degradation on ethidium bromide stained gel” value (shortened to “DNA laddering / degradation”) [3] was “DNA laddering effect typical of apoptosis” and the “DNA laddering / degradation” value [4] was “little or no laddering or degradation”. For the same compound, the “DNA laddering / degradation” value [5] was “little or no laddering or degradation” and the “cells treated with actinomycin D-containing medium that died” value [6] was 85-90%.
